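Cultured in 96-well plates, cells were exposed to test compound for 48 hours across five concentrations. The concentration for 50% growth inhibition is given as GI50.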 Activity calls are given as the source filed them. Rule as the data show it: active = GI50 up to about 1.1 µM and inactive = higher.
Experiments:
Assay in all cases: DTP human tumour cell line panel, 48 h
SF-268 = test system: SF-268
ACHN = test system: ACHN
SNB-19 = test system: SNB-19
HT-29 = test system: HT-29
CAKI-1 = test system: CAKI-1
SK-MEL-28 = test system: SK-MEL-28
SR = test system: SR
SK-MEL-5 = test system: SK-MEL-5
SK-MEL-2 = test system: SK-MEL-2
Malme-3M = test system: Malme-3M
A498 = test system: A498
SN12C = test system: SN12C
M14 = test system: M14
SW-620 = test system: SW-620
HCT-15 = test system: HCT-15
COLO 205 = test system: COLO 205
HL-60 = test system: HL-60
UO-31 = test system: UO-31
M19-MEL = test system: M19-MEL
MCF7 = test system: MCF7

Structure (SMILES) | GI50 (SF-268) | GI50 (ACHN) | GI50 (SNB-19) | GI50 (HT-29) | GI50 (CAKI-1) | GI50 (SK-MEL-28) | GI50 (SR) | GI50 (SK-MEL-5) | GI50 (SK-MEL-2) | GI50 (Malme-3M) | GI50 (A498) | GI50 (SN12C) | GI50 (M14) | GI50 (SW-620) | GI50 (HCT-15) [µM] | GI50 (COLO 205) | GI50 (HL-60) | GI50 (UO-31) | GI50 (M19-MEL) | GI50 (MCF7)
CCCCCCC(O)CC[C@H]1CCC[C@@H](C)N1 (stereo partly drawn) | > 31.6 µM (inactive) | > 100 µM (inactive) | > 10 µM (inactive) | 29 µM (inactive) | > 100 µM (inactive) | > 31.6 µM (inactive) | > 100 µM (inactive) | 55 µM (inactive) | > 10 µM (inactive) | > 100 µM (inactive) | > 10 µM (inactive) | > 100 µM (inactive) | > 100 µM (inactive) | > 100 µM (inactive) | > 31.6 | > 31.6 µM (inactive) | > 100 µM (inactive) | > 84.3 µM (inactive) | > 31.6 µM (inactive) | 
O=S(=O)(N/N=C/c1ccc(/C=N/NS(=O)(=O)c2ccccc2)cc1)c1ccccc1 | > 100 µM (inactive) | 55.8 µM (inactive) |  | 59.6 µM (inactive) |  | 81.7 µM (inactive) | 29 µM (inactive) | 39.4 µM (inactive) | 43.5 µM (inactive) | > 100 µM (inactive) | 68.5 µM (inactive) | 42.6 µM (inactive) | > 100 µM (inactive) |  | 44.1 | 21.4 µM (inactive) | 23.2 µM (inactive) | 63.2 µM (inactive) | 50.6 µM (inactive) | 
N#C/C(=C\c1ccccc1Br)C(=O)c1ccccc1 | > 46 µM (inactive) | > 53.8 µM (inactive) | 20.4 µM (inactive) | > 57.7 µM (inactive) | > 71.8 µM (inactive) | > 42.3 µM (inactive) | 13.3 µM (inactive) | 16.5 µM (inactive) | > 65.5 µM (inactive) | > 53.1 µM (inactive) | > 100 µM (inactive) | > 43.3 µM (inactive) | > 34.8 µM (inactive) | 2.04 µM (inactive) | 8.34 | > 65.9 µM (inactive) | 1.28 µM (inactive) | > 38.5 µM (inactive) | 33.4 µM (inactive) | 
Cc1cc(N(CCC#N)CCC#N)ccc1/C=C1/CN(N2C(=O)/C(=C/c3ccc(N(CCC#N)CCC#N)cc3C)N=C2c2ccccc2)C(c2ccccc2)=N1 | > 100 µM (inactive) | > 100 µM (inactive) | 41 µM (inactive) | > 100 µM (inactive) | > 100 µM (inactive) | > 100 µM (inactive) | > 100 µM (inactive) | > 100 µM (inactive) |  | > 100 µM (inactive) | > 100 µM (inactive) | > 100 µM (inactive) | 90.4 µM (inactive) | > 100 µM (inactive) | > 100 | > 100 µM (inactive) | > 100 µM (inactive) | > 100 µM (inactive) | > 100 µM (inactive) | 
O=c1/c(=C/c2ccccc2O)sc2nc3ccccc3n12 | 16.6 µM (inactive) | 45.6 µM (inactive) | 80.7 µM (inactive) | 43.2 µM (inactive) | 34.6 µM (inactive) | 23.6 µM (inactive) | 27.4 µM (inactive) | 30.7 µM (inactive) | 32.3 µM (inactive) | 32.2 µM (inactive) | 49.4 µM (inactive) | 33.9 µM (inactive) | 47.9 µM (inactive) | 40.5 µM (inactive) | 21.6 |  | 4.9 µM (inactive) | 46.8 µM (inactive) | 41.2 µM (inactive) | 
COC(=O)C(=O)C(C(C)=O)C(=O)NCc1ccc(OC)c(OC)c1 (stereo not drawn) | > 100 µM (inactive) | > 100 µM (inactive) | > 100 µM (inactive) | > 100 µM (inactive) | > 100 µM (inactive) | > 100 µM (inactive) | > 100 µM (inactive) | > 100 µM (inactive) | > 100 µM (inactive) | > 100 µM (inactive) | > 100 µM (inactive) | > 100 µM (inactive) | > 100 µM (inactive) | 40.5 µM (inactive) | > 100 | > 100 µM (inactive) | > 100 µM (inactive) | > 100 µM (inactive) | > 100 µM (inactive) | 
CCC(=O)C(C)C(=O)C(=O)C(=O)OC (stereo not drawn) | > 100 µM (inactive) | > 100 µM (inactive) | > 100 µM (inactive) | 97.1 µM (inactive) | > 100 µM (inactive) | > 100 µM (inactive) | > 100 µM (inactive) | > 100 µM (inactive) | > 100 µM (inactive) | > 100 µM (inactive) | > 100 µM (inactive) | > 100 µM (inactive) | > 100 µM (inactive) | > 26.2 µM (inactive) | > 55.8 | > 60.5 µM (inactive) | > 44.4 µM (inactive) | > 100 µM (inactive) | > 100 µM (inactive) | 
CCCOc1ccc(/C(Cl)=C(\C=O)c2ccc(OC)c(OC)c2)cc1OCCC | 3.73 µM (inactive) | 9.31 µM (inactive) | 23.1 µM (inactive) | 5.2 µM (inactive) | 75.3 µM (inactive) | 7.59 µM (inactive) | 2.52 µM (inactive) | 10 µM (inactive) | 11.6 µM (inactive) | 0.804 µM (active) | 12.3 µM (inactive) | 9.89 µM (inactive) | 12.7 µM (inactive) | 5.13 µM (inactive) | 5.47 | 4.22 µM (inactive) | 1.84 µM (inactive) | 17.6 µM (inactive) | 10.5 µM (inactive) | 
COC1C(OC(=O)/C=C/C=C/C=C/C=C/C(=O)O)CCC2(CO2)C1C1(C)OC1CC=C(C)C (stereo not drawn) | 34.5 µM (inactive) | 18.5 µM (inactive) | > 56.1 µM (inactive) | 21.1 µM (inactive) | 43.8 µM (inactive) | 18.2 µM (inactive) | 20.6 µM (inactive) | 18.5 µM (inactive) | 5.01 µM (inactive) | 26.2 µM (inactive) | > 100 µM (inactive) | 28.1 µM (inactive) | 13.6 µM (inactive) | 21 µM (inactive) | 24.2 | 12.4 µM (inactive) | 16.4 µM (inactive) | 24.5 µM (inactive) | 18.7 µM (inactive) | 25.1 µM (inactive)
Brc1ccc2ns[s+]c2c1 | 2.58 µM (inactive) | 0.897 µM (active) | 29.9 µM (inactive) | 1.3 µM (inactive) | 2.49 µM (inactive) | 11.9 µM (inactive) | 4.36 µM (inactive) |  | 6.75 µM (inactive) | 33.5 µM (inactive) | > 100 µM (inactive) | 14 µM (inactive) | 0.45 µM (active) | 8.63 µM (inactive) | 0.343 | 4.91 µM (inactive) | 2.59 µM (inactive) | 4.36 µM (inactive) | 6.24 µM (inactive) | 
CC1(C)OC2C(=O)OC(COCc3ccccc3)C2O1 (stereo not drawn) | > 100 µM (inactive) | > 100 µM (inactive) |  | > 100 µM (inactive) | > 100 µM (inactive) | > 100 µM (inactive) | 78.9 µM (inactive) | > 100 µM (inactive) | > 100 µM (inactive) | > 100 µM (inactive) | > 100 µM (inactive) | > 100 µM (inactive) | > 100 µM (inactive) | > 100 µM (inactive) | > 100 | > 100 µM (inactive) | > 100 µM (inactive) | > 100 µM (inactive) | > 100 µM (inactive) | 
CC1=C(N2CC2)C(=O)C(C)=C(N2CC2)C1=O | 0.0834 µM (active) | 0.0315 µM (active) | 0.348 µM (active) | 0.175 µM (active) | 0.0991 µM (active) | 0.356 µM (active) | 0.05 µM (active) | 0.155 µM (active) | 0.306 µM (active) | 0.204 µM (active) | 0.178 µM (active) | 0.113 µM (active) | 0.189 µM (active) | 0.143 µM (active) | 0.196 | 0.206 µM (active) | 0.0206 µM (active) | 0.0912 µM (active) | 0.229 µM (active) | 0.0212 µM (active)

— ChEMBL document CHEMBL1201862, “PubChem BioAssay data set” (2004)
